Here are results for 10 compounds from patent US8557805B2, “Fused ring compound and use thereof” (Takeda Pharmaceutical Company Limited, priority 2008, dated 2013).

Each structure is given as a SMILES string.

The term melting point denotes the temperature, or range, at which the solid turns liquid. In the case of `CS(=O)(=O)c1ccc(Oc2cc(OC3CCOCC3)c3[nH]c(C4=NCC(CC(N)=O)S4)cc3c2)nc1` (stereo not shown) [Example 16, 2-{2-[5-{[5-(Methylsulfonyl)pyridin-2-yl]oxy}-7-(tetrahydro-2H-pyran-4-yloxy)-1H-indol-2-yl]-4,5-dihydro-1,3-thiazol-5-yl}acetamide], the melting point was 188 to 190 °C. As for `Cc1cc(Oc2ccc(S(C)(=O)=O)nc2)cc2cc(C3=NCC(CC(=O)NC[C@@H](C)O)S3)[nH]c12` (stereo partly drawn) [Example 77, N-[(2R)-2-Hydroxypropyl]-2-[2-(7-methyl-5-{[6-(methylsulfonyl)pyridin-3-yl]oxy}-1H-indol-2-yl)-4,5-dihydro-1,3-thiazol-5-yl]acetamide], the figure is 168 to 169 °C. In the case of `CS(=O)(=O)c1ccc(Oc2cc(OC3CCOCC3)c3[nH]c(C4=NCC(CC(=O)NCCO)S4)cc3c2)cn1` (stereo not shown) [Example 44, N-(2-Hydroxyethyl)-2-{2-[5-{[6-(methylsulfonyl)pyridin-3-yl]oxy}-7-(tetrahydro-2H-pyran-4-yloxy)-1H-indol-2-yl]-4,5-dihydro-1,3-thiazol-5-yl}acetamide], the melting point lay in the range of 157 to 158 °C.

Compound `CS(=O)(=O)Cc1ccc(Oc2cc(OC3CCOCC3)c3[nH]c(C4=NCC(CC(N)=O)S4)cc3c2)cn1` (stereo not shown) [Example 26, 2-{2-[5-({6-[(Methylsulfonyl)methyl]pyridin-3-yl}oxy)-7-(tetrahydro-2H-pyran-4-yloxy)-1H-indol-2-yl]-4,5-dihydro-1,3-thiazol-5-yl}acetamide] returned a melting point of 164 to 167 °C. The value for `CCc1cc(Oc2ccc(S(C)(=O)=O)nc2)cc2cc(C3=NCC(CC(=O)NC)S3)[nH]c12` (stereo not shown) [Example 62, 2-[2-(7-Ethyl-5-{[6-(methylsulfonyl)pyridin-3-yl]oxy}-1H-indol-2-yl)-4,5-dihydro-1,3-thiazol-5-yl]-N-methylacetamide] was 189 to 190 °C; that for `CC(C)(O)CNC(=O)CC1CN=C(c2cc3cc(Oc4ccc(S(C)(=O)=O)nc4)cc(OC4CCOCC4)c3[nH]2)S1` (stereo not shown) [Example 39, N-(2-Hydroxy-2-methylpropyl)-2-{2-[5-{[6-(methylsulfonyl)pyridin-3-yl]oxy}-7-(tetrahydro-2H-pyran-4-yloxy)-1H-indol-2-yl]-4,5-dihydro-1,3-thiazol-5-yl}acetamide] was 195 to 196 °C.

`CS(=O)(=O)c1ccc(Oc2cc(OC3CCOCC3)c3[nH]c(C4=NCC(CC(N)=O)S4)cc3c2)cc1` (stereo not shown) [Example 5, 2-(2-{5-[4-(Methylsulfonyl)phenoxy]-7-(tetrahydro-2H-pyran-4-yloxy)-1H-indol-2-yl}-4,5-dihydro-1,3-thiazol-5-yl)acetamide] showed a melting point of 176 to 177 °C. Turning to `CC1(CNC(=O)CC2CN=C(c3cc4cc(Oc5ccc(S(C)(=O)=O)nc5)cc(OC5CCOCC5)c4[nH]3)S2)COC1` (stereo not shown) [Example 40, N-[(3-Methyloxetan-3-yl)methyl]-2-{2-[5-{[6-(methylsulfonyl)pyridin-3-yl]oxy}-7-(tetrahydro-2H-pyran-4-yloxy)-1H-indol-2-yl]-4,5-dihydro-1,3-thiazol-5-yl}acetamide], the melting point lay within 189 to 190 °C. Compound `CNC(=O)CC1CN=C(c2cc3cc(Oc4ccc(CS(C)(=O)=O)nc4)cc(OC4CCOCC4)c3[nH]2)S1` (stereo not shown) [Example 27, N-Methyl-2-{2-[5-({6-[(methylsulfonyl)methyl]pyridin-3-yl}oxy)-7-(tetrahydro-2H-pyran-4-yloxy)-1H-indol-2-yl]-4,5-dihydro-1,3-thiazol-5-yl}acetamide] returned a melting point of 157 to 158 °C. `CS(=O)(=O)c1ccc(Oc2cc(OC3CCOCC3)c3[nH]c(C4=NCC(CC(N)=O)S4)cc3c2)cn1` (stereo not shown) [Example 31, 2-{2-[5-{[6-(Methylsulfonyl)pyridin-3-yl]oxy}-7-(tetrahydro-2H-pyran-4-yloxy)-1H-indol-2-yl]-4,5-dihydro-1,3-thiazol-5-yl}acetamide] returned a melting point of 136 to 138 °C.
